# Experimental data: patent US20230017045A1, “PYRIDINE AND PYRIMIDINE CARBOXYLATE HERBICIDES AND METHODS OF USE THEREOF” (Dow AgroSciences LLC, priority 2017, published 2023)
# Test system: test plant species
# Assay: Post-emergent herbicidal activity test (greenhouse, foliar spray, visual growth reduction)
# Format: in vivo
# Conditions: post-emergence, 336 h, ALOMY: blackgrass (Alopecurus myosuroides), 140 g ai/ha, 14 days after application, read-out: Visual Growth Reduction (%) 14 Days After Application, ALOMY
# Description: Post-emergent Test: Seeds or nutlets of the desired test plant species were planted in Sun Gro Metro-Mix® 360 planting mixture, which typically has a pH of 6.0 to 6.8 and an organic matter content of about 30 percent, in plastic pots with a surface area of 64 square centimeters. In some aspects, to ensure good germination and healthy plants, a fungicide treatment and/or other chemical or physical treatment was applied. The plants were grown for 7-21 d in a greenhouse with an approximate 15 h photoperiod which was maintained at 23-29° C. during the day and 22-28° C. during the night. Nutrients and water were added on a regular basis and supplemental lighting was provided with overhead metal halide 1000-Watt lamps as necessary. Plants were used for testing when they reached the first or second true leaf stage. A weighed amount, determined by the highest rate to be tested, of each test compound was placed in a 25 mL glass vial and was dissolved in 4 mL of a 97:3 v/v mixture of acetone and DMSO to obtain concentrated stock solutions. […] The concentrated stock solutions obtained were diluted with 20 mL of an aqueous mixture containing acetone, water, isopropyl alcohol, DMSO, […] crop oil concentrate, and X-77 surfactant in a 48.5:39:10:1.5:1.0:0.02 v/v ratio to obtain spray solutions containing the application rate. Compound requirements are based upon a 12 mL application volume at a rate of 187 liters per hectare (L/ha). Formulated compounds were applied to the plant material with an overhead Mandel track sprayer equipped with […] nozzles calibrated to deliver 187 L/ha over an application area of 0.64 square meters at a spray height of 18 inches (43 cm) above the average plant canopy height. Control plants were sprayed in the same manner with the solvent blank. The treated plants and control plants were placed in a greenhouse as described above and watered by subirrigation to prevent wash-off of the test compounds. After 14 d, the condition of the test plants as compared with that of the nontreated and control plants was determined visually and scored on a scale of 0 to 100 percent where 0 corresponds to no injury and 100 corresponds to complete control. In the reporting of the results, Table A: Percent Growth Reduction Conversion Table was used.
row,SMILES,pest or weed control at 140 g/ha [%]
1,"O=C(O)c1nc(-c2ccc(C(F)(F)F)cc2F)c(F)cc1Cl [F160, 3-Chloro-5-fluoro-6-(2-fluoro-4-(trifluoromethyl)phenyl) picolinic acid]",75 to 84
2,"COC(=O)c1nc(-c2ccc(OS(C)(=O)=O)cc2)c(F)cc1Cl [F159, Methyl 3-chloro-5-fluoro-6-(4-((methylsulfonyl)oxy)phenyl)picolinate]",0 to 29

# Same assay, conditions: post-emergence, 336 h, AMARE: redroot pigweed (Amaranthus retroflexus), 140 g ai/ha, 14 days after application, read-out: Visual Growth Reduction (%) 14 Days After Application, AMARE
row,SMILES,pest or weed control at 140 g/ha [%]
1,"O=C(O)c1nc(-c2ccc(C(F)(F)F)cc2F)c(F)cc1Cl [F160, 3-Chloro-5-fluoro-6-(2-fluoro-4-(trifluoromethyl)phenyl) picolinic acid]",95 to 100
2,"COC(=O)c1nc(-c2ccc(OS(C)(=O)=O)cc2)c(F)cc1Cl [F159, Methyl 3-chloro-5-fluoro-6-(4-((methylsulfonyl)oxy)phenyl)picolinate]",60 to 74

# Same assay, conditions: post-emergence, 336 h, AVEFA: wild oat (Avena fatua), 140 g ai/ha, 14 days after application, read-out: Visual Growth Reduction (%) 14 Days After Application, AVEFA
row,SMILES,pest or weed control at 140 g/ha [%]
1,"O=C(O)c1nc(-c2ccc(C(F)(F)F)cc2F)c(F)cc1Cl [F160, 3-Chloro-5-fluoro-6-(2-fluoro-4-(trifluoromethyl)phenyl) picolinic acid]",85 to 94
2,"COC(=O)c1nc(-c2ccc(OS(C)(=O)=O)cc2)c(F)cc1Cl [F159, Methyl 3-chloro-5-fluoro-6-(4-((methylsulfonyl)oxy)phenyl)picolinate]",0 to 29

# Same assay, conditions: post-emergence, 336 h, CHEAL: lambsquarters (Chenopodium album), 140 g ai/ha, 14 days after application, read-out: Visual Growth Reduction (%) 14 Days After Application, CHEAL
row,SMILES,pest or weed control at 140 g/ha [%]
1,"O=C(O)c1nc(-c2ccc(C(F)(F)F)cc2F)c(F)cc1Cl [F160, 3-Chloro-5-fluoro-6-(2-fluoro-4-(trifluoromethyl)phenyl) picolinic acid]",95 to 100
2,"COC(=O)c1nc(-c2ccc(OS(C)(=O)=O)cc2)c(F)cc1Cl [F159, Methyl 3-chloro-5-fluoro-6-(4-((methylsulfonyl)oxy)phenyl)picolinate]",45 to 59

# Same assay, conditions: post-emergence, 336 h, CIRAR: canada thistle (Cirsium arvense), 140 g ai/ha, 14 days after application, read-out: Visual Growth Reduction (%) 14 Days After Application, CIRAR
row,SMILES,pest or weed control at 140 g/ha [%]
1,"O=C(O)c1nc(-c2ccc(C(F)(F)F)cc2F)c(F)cc1Cl [F160, 3-Chloro-5-fluoro-6-(2-fluoro-4-(trifluoromethyl)phenyl) picolinic acid]",85 to 94
2,"COC(=O)c1nc(-c2ccc(OS(C)(=O)=O)cc2)c(F)cc1Cl [F159, Methyl 3-chloro-5-fluoro-6-(4-((methylsulfonyl)oxy)phenyl)picolinate]",30 to 44

# Same assay, conditions: post-emergence, 336 h, CYPES: yellow nutsedge (Cyperus esculentus), 140 g ai/ha, 14 days after application, read-out: Visual Growth Reduction (%) 14 Days After Application, CYPES
row,SMILES,pest or weed control at 140 g/ha [%]
1,"O=C(O)c1nc(-c2ccc(C(F)(F)F)cc2F)c(F)cc1Cl [F160, 3-Chloro-5-fluoro-6-(2-fluoro-4-(trifluoromethyl)phenyl) picolinic acid]",60 to 74
2,"COC(=O)c1nc(-c2ccc(OS(C)(=O)=O)cc2)c(F)cc1Cl [F159, Methyl 3-chloro-5-fluoro-6-(4-((methylsulfonyl)oxy)phenyl)picolinate]",0 to 29

# Same assay, conditions: post-emergence, 336 h, DIGSA: crabgrass (Digitaria sanguinalis), 140 g ai/ha, 14 days after application, read-out: Visual Growth Reduction (%) 14 Days After Application, DIGSA
row,SMILES,pest or weed control at 140 g/ha [%]
1,"O=C(O)c1nc(-c2ccc(C(F)(F)F)cc2F)c(F)cc1Cl [F160, 3-Chloro-5-fluoro-6-(2-fluoro-4-(trifluoromethyl)phenyl) picolinic acid]",85 to 94
2,"COC(=O)c1nc(-c2ccc(OS(C)(=O)=O)cc2)c(F)cc1Cl [F159, Methyl 3-chloro-5-fluoro-6-(4-((methylsulfonyl)oxy)phenyl)picolinate]",60 to 74

# Same assay, conditions: post-emergence, 336 h, ECHCG: barnyardgrass (Echinochloa crus-galli), 140 g ai/ha, 14 days after application, read-out: Visual Growth Reduction (%) 14 Days After Application, ECHCG
row,SMILES,pest or weed control at 140 g/ha [%]
1,"O=C(O)c1nc(-c2ccc(C(F)(F)F)cc2F)c(F)cc1Cl [F160, 3-Chloro-5-fluoro-6-(2-fluoro-4-(trifluoromethyl)phenyl) picolinic acid]",95 to 100
2,"COC(=O)c1nc(-c2ccc(OS(C)(=O)=O)cc2)c(F)cc1Cl [F159, Methyl 3-chloro-5-fluoro-6-(4-((methylsulfonyl)oxy)phenyl)picolinate]",30 to 44

# Same assay, conditions: post-emergence, 336 h, IPOHE: ivy-leaf morning glory (Ipomoea hederacea), 140 g ai/ha, 14 days after application, read-out: Visual Growth Reduction (%) 14 Days After Application, IPOHE
row,SMILES,pest or weed control at 140 g/ha [%]
1,"O=C(O)c1nc(-c2ccc(C(F)(F)F)cc2F)c(F)cc1Cl [F160, 3-Chloro-5-fluoro-6-(2-fluoro-4-(trifluoromethyl)phenyl) picolinic acid]",95 to 100
2,"COC(=O)c1nc(-c2ccc(OS(C)(=O)=O)cc2)c(F)cc1Cl [F159, Methyl 3-chloro-5-fluoro-6-(4-((methylsulfonyl)oxy)phenyl)picolinate]",45 to 59

# Same assay, conditions: post-emergence, 336 h, KCHSC: kochia (Bassia scoparia), 140 g ai/ha, 14 days after application, read-out: Visual Growth Reduction (%) 14 Days After Application, KCHSC
row,SMILES,pest or weed control at 140 g/ha [%]
1,"O=C(O)c1nc(-c2ccc(C(F)(F)F)cc2F)c(F)cc1Cl [F160, 3-Chloro-5-fluoro-6-(2-fluoro-4-(trifluoromethyl)phenyl) picolinic acid]",95 to 100
2,"COC(=O)c1nc(-c2ccc(OS(C)(=O)=O)cc2)c(F)cc1Cl [F159, Methyl 3-chloro-5-fluoro-6-(4-((methylsulfonyl)oxy)phenyl)picolinate]",0 to 29

# Same assay, conditions: post-emergence, 336 h, ORYSA: rice (Oryza sativa), 140 g ai/ha, 14 days after application, read-out: Visual Growth Reduction (%) 14 Days After Application, ORYSA
row,SMILES,pest or weed control at 140 g/ha [%]
1,"O=C(O)c1nc(-c2ccc(C(F)(F)F)cc2F)c(F)cc1Cl [F160, 3-Chloro-5-fluoro-6-(2-fluoro-4-(trifluoromethyl)phenyl) picolinic acid]",60 to 74
2,"COC(=O)c1nc(-c2ccc(OS(C)(=O)=O)cc2)c(F)cc1Cl [F159, Methyl 3-chloro-5-fluoro-6-(4-((methylsulfonyl)oxy)phenyl)picolinate]",0 to 29

# Same assay, conditions: post-emergence, 336 h, SETFA: giant foxtail (Setaria faberi), 140 g ai/ha, 14 days after application, read-out: Visual Growth Reduction (%) 14 Days After Application, SETFA
row,SMILES,pest or weed control at 140 g/ha [%]
1,"O=C(O)c1nc(-c2ccc(C(F)(F)F)cc2F)c(F)cc1Cl [F160, 3-Chloro-5-fluoro-6-(2-fluoro-4-(trifluoromethyl)phenyl) picolinic acid]",85 to 94
2,"COC(=O)c1nc(-c2ccc(OS(C)(=O)=O)cc2)c(F)cc1Cl [F159, Methyl 3-chloro-5-fluoro-6-(4-((methylsulfonyl)oxy)phenyl)picolinate]",60 to 74

# Same assay, conditions: post-emergence, 336 h, SORVU: grain sorghum (Sorghum vulgare), 140 g ai/ha, 14 days after application, read-out: Visual Growth Reduction (%) 14 Days After Application, SORVU
row,SMILES,pest or weed control at 140 g/ha [%]
1,"O=C(O)c1nc(-c2ccc(C(F)(F)F)cc2F)c(F)cc1Cl [F160, 3-Chloro-5-fluoro-6-(2-fluoro-4-(trifluoromethyl)phenyl) picolinic acid]",95 to 100
2,"COC(=O)c1nc(-c2ccc(OS(C)(=O)=O)cc2)c(F)cc1Cl [F159, Methyl 3-chloro-5-fluoro-6-(4-((methylsulfonyl)oxy)phenyl)picolinate]",30 to 44

# Same assay, conditions: post-emergence, 336 h, STEME: common chickweed (Stellaria media), 140 g ai/ha, 14 days after application, read-out: Visual Growth Reduction (%) 14 Days After Application, STEME
row,SMILES,pest or weed control at 140 g/ha [%]
1,"O=C(O)c1nc(-c2ccc(C(F)(F)F)cc2F)c(F)cc1Cl [F160, 3-Chloro-5-fluoro-6-(2-fluoro-4-(trifluoromethyl)phenyl) picolinic acid]",30 to 44
2,"COC(=O)c1nc(-c2ccc(OS(C)(=O)=O)cc2)c(F)cc1Cl [F159, Methyl 3-chloro-5-fluoro-6-(4-((methylsulfonyl)oxy)phenyl)picolinate]",0 to 29

# Same assay, conditions: post-emergence, 336 h, TRZAS: wheat, spring (Triticum aestivum), 140 g ai/ha, 14 days after application, read-out: Visual Growth Reduction (%) 14 Days After Application, TRZAS
row,SMILES,pest or weed control at 140 g/ha [%]
1,"O=C(O)c1nc(-c2ccc(C(F)(F)F)cc2F)c(F)cc1Cl [F160, 3-Chloro-5-fluoro-6-(2-fluoro-4-(trifluoromethyl)phenyl) picolinic acid]",85 to 94
2,"COC(=O)c1nc(-c2ccc(OS(C)(=O)=O)cc2)c(F)cc1Cl [F159, Methyl 3-chloro-5-fluoro-6-(4-((methylsulfonyl)oxy)phenyl)picolinate]",0 to 29
